How the values were obtained:
[1] = target: T1, Alpha-1D adrenergic receptor (Rattus norvegicus) (UniProt P23944); experiment: Antagonist activity at adrenergic Alpha-1D receptor in Wistar rat thoracic aorta assessed as inhibition of (-)-norepinephrine-induced vasocontraction treated 30 mins before (-)norepinephrine challenge; assay type: functional, tissue-based
T1 sequence (whole entry): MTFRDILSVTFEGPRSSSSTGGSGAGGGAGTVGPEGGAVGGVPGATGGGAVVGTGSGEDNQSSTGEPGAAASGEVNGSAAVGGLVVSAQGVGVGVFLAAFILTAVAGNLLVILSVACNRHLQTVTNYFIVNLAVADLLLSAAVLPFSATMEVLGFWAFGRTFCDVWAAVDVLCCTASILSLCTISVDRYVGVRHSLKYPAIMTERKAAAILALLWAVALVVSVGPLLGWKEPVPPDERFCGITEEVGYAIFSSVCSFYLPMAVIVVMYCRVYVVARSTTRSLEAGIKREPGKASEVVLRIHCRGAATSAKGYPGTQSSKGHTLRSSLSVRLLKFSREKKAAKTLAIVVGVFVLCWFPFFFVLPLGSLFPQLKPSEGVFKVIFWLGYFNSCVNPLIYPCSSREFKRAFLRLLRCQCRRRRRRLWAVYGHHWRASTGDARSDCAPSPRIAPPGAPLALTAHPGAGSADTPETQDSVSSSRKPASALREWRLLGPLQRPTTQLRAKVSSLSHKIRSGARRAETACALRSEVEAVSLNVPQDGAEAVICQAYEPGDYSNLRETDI

[2] = target: T2, 5-hydroxytryptamine receptor 1A (Homo sapiens, UniProt P08908)
T2 sequence (P08908 whole entry): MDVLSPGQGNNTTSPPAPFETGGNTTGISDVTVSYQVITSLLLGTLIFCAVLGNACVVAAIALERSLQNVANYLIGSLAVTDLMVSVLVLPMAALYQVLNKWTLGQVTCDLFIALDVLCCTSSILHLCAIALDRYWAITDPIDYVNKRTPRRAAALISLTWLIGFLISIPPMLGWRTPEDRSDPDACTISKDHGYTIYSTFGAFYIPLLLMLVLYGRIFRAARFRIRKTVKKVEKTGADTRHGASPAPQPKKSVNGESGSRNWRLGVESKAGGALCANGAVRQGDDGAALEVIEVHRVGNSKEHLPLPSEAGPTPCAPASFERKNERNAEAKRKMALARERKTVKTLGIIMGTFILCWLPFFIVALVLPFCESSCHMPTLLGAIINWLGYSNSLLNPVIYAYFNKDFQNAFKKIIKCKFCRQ

[3] = target: T3, Alpha-1A adrenergic receptor (Rattus norvegicus) (UniProt P43140); experiment: Antagonist activity at adrenergic alpha1A receptor in Wistar rat prostatic vas deferens assessed as inhibition of (-)-noradrenaline-induced tissue contraction treated 30 mins before (-)noradrenalin challenge; assay type: functional, tissue-based
T3 sequence (whole entry): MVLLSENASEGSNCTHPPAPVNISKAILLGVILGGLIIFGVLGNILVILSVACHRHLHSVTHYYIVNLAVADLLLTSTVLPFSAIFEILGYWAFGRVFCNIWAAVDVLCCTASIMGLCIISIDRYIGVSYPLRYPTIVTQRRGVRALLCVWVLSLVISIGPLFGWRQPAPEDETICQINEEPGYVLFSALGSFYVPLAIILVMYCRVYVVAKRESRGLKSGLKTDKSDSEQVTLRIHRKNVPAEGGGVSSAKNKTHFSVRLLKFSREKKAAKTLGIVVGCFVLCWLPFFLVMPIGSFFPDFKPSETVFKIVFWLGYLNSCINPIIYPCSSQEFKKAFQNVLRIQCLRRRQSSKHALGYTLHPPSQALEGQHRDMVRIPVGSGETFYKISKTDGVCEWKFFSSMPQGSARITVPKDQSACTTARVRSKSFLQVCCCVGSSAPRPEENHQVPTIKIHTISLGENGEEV

[4] = target: T4, Alpha-1B adrenergic receptor (Rattus norvegicus) (UniProt P15823); experiment: Antagonist activity at adrenergic Alpha-1B receptor in Wistar rat spleen assessed as inhibition of […]-induced tissue contraction treated 30 mins before […] challenge; assay type: functional, tissue-based
T4 sequence (whole entry): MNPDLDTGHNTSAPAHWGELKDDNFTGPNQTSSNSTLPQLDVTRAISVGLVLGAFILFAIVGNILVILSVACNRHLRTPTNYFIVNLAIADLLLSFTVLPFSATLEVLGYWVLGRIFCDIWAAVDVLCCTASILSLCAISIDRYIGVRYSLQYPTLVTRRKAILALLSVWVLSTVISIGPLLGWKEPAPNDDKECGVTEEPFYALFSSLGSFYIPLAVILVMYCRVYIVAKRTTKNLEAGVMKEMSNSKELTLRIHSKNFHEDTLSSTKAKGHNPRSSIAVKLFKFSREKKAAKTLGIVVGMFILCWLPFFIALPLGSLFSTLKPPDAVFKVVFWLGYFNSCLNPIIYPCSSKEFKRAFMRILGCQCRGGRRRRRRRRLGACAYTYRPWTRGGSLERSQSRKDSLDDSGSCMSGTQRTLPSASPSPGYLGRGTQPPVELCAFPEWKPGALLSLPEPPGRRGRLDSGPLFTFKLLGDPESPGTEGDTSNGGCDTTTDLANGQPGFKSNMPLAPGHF

[5] = organism: Rattus norvegicus; experiment: Selectivity for adrenergic Alpha-1B receptor in Wistar rat spleen over adrenergic alpha1A receptor in Wistar rat prostatic vas deferens; assay type: tissue-based
[6] = target: T5, Alpha-1A adrenergic receptor (Homo sapiens, UniProt P35348)
T5 sequence (P35348 whole entry): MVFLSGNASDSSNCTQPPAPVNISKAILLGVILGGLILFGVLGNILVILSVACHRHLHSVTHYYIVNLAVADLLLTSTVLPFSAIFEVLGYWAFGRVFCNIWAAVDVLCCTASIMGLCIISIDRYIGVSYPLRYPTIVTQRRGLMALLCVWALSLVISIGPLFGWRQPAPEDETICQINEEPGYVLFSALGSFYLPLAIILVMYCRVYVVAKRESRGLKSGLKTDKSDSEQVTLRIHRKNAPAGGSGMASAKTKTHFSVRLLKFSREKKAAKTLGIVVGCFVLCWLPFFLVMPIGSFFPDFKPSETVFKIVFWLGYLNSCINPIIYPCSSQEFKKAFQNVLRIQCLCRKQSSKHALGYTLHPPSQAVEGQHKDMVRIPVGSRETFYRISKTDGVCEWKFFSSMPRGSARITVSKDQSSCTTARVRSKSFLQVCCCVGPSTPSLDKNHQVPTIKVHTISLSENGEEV
Description: Displacement [3H]prazosin of human recombinant alpha1A adrenergic receptor expressed in CHO cells by rapid filtration technique

Compound `COc1ccccc1N1CCN(C[C@@H]2CO[C@@](CN3C(=O)CCCC3=O)(c3ccccc3)O2)CC1` (relative stereo) has a pKb [1] of 7.57, a Ki [2] of 44.7 nM and a pKb [3] of 7.36. For the same compound, the pKb [4] was 7.35, the Selectivity ratio [5] was 1 and the Ki [6] was 21.4 nM.
With `COc1ccccc1N1CCN(C[C@@H]2CO[C@@](CN3C(=O)CC4(CCCC4)CC3=O)(c3ccccc3)O2)CC1` (relative stereo) the pKb [1] was 8.51, the Ki [2] was 1.26 nM and the pKb [3] was 7.29. The pKb [4] was 7.47, the Selectivity ratio [5] was 0.7 and the Ki [6] was 10 nM.
With `COc1ccccc1N1CCN(C[C@@H]2CO[C@@](CN3C(=O)CCC3=O)(c3ccccc3)O2)CC1` (relative stereo) the pKb [1] was 7.78, the Ki [2] was 25.7 nM and the pKb [3] was 7.32. The pKb [4] was 7.11, the Selectivity ratio [5] was 2 and the Ki [6] was 40.7 nM.
Work on `COc1ccccc1N1CCN(C[C@@H]2CO[C@@](CN3CCCCCC3=O)(c3ccccc3)O2)CC1` (relative stereo) yielded a pKb [1] of 7.75, a Ki [2] of 7.24 nM and a pKb [3] of 7.18. For the same compound, the pKb [4] was 8.08, the Selectivity ratio [5] was 0.1 and the Ki [6] was 26.9 nM.
Work on `COc1ccccc1N1CCN(C[C@@H]2CO[C@@](CN3CCCCC3=O)(c3ccccc3)O2)CC1` (relative stereo) yielded a pKb [1] of 7.29, a Ki [2] of 5.13 nM and a pKb [3] of 7.32. The pKb [4] was 8.3, the Selectivity ratio [5] was 0.1 and the Ki [6] was 11.5 nM.
Compound `COc1ccccc1N1CCN(CC2OCC(c3ccccc3)(c3ccccc3)O2)CC1` (stereo not drawn) has a pKb [1] of 8.14, a Ki [2] of 22.9 nM and a pKb [3] of 8.24. For the same compound, the pKb [4] was 6.69, the Selectivity ratio [5] was 36 and the Ki [6] was 0.263 nM.
Work on `COc1ccccc1N1CCN(C[C@H]2CO[C@@](CN3CCCCCC3=O)(c3ccccc3)O2)CC1` (relative stereo) yielded a pKb [1] of 7.57, a Ki [2] of 5.62 nM and a pKb [3] of 8.97. The pKb [4] was 8.42, the Selectivity ratio [5] was 4 and the Ki [6] was 0.631 nM.
Work on `COc1ccccc1N1CCN(C[C@H]2CO[C@@](CN3CCCCC3=O)(c3ccccc3)O2)CC1` yielded a pKb [1] of 6.74, a Ki [2] of 5.25 nM and a pKb [3] of 7.3. For the same compound, the pKb [4] was 7.93, the Selectivity ratio [5] was 0.3 and the Ki [6] was 0.871 nM.
`COc1ccccc1N1CCN(C[C@H]2CO[C@@](CN3C(=O)CCCC3=O)(c3ccccc3)O2)CC1` (relative stereo) was tested, and the pKb [1] was 6.19, the Ki [2] was 3.16 nM and the pKb [3] was 7.09. For the same compound, the pKb [4] was 7.12, the Selectivity ratio [5] was 1 and the Ki [6] was 6.61 nM.
`COc1ccccc1N1CCN(C[C@H]2CO[C@@](CN3C(=O)CC4(CCCC4)CC3=O)(c3ccccc3)O2)CC1` (relative stereo) showed a pKb [1] of 6.78, a Ki [2] of 2.63 nM and a pKb [3] of 7.72. It also gave a pKb [4] of 7.4, a Selectivity ratio [5] of 3 and a Ki [6] of 2.04 nM.
In the case of `COc1ccccc1N1CCN(C[C@H]2CO[C@@](CN3C(=O)CCC3=O)(c3ccccc3)O2)CC1` (relative stereo), the pKb [1] is reported as 6.42, the Ki [2] is reported as 5.13 nM and the pKb [3] is reported as 7.45. The pKb [4] was 7.04, the Selectivity ratio [5] was 3 and the Ki [6] was 2.88 nM.
For `COc1ccccc1N1CCN(C[C@H]2CO[C@](CN3CCCC3=O)(c3ccccc3)O2)CC1` (relative stereo), the pKb [1] was 6.79, the Ki [2] was 6.92 nM and the pKb [3] was 7.94. For the same compound, the pKb [4] was 8.29, the Selectivity ratio [5] was 0.5 and the Ki [6] was 1.38 nM.
`COc1ccccc1N1CCN(C[C@@H]2CO[C@](CN3CCCC3=O)(c3ccccc3)O2)CC1` (relative stereo) gave a pKb [1] of 7.43, a Ki [2] of 11.2 nM and a pKb [3] of 7.34. The pKb [4] was 8.17, the Selectivity ratio [5] was 0.2 and the Ki [6] was 12.6 nM.

Source: ChEMBL document CHEMBL1240454, “1,3-Dioxolane-based ligands incorporating a lactam or imide moiety: structure-affinity/activity relationship at alpha1-adrenoceptor subtypes and at 5-HT1A receptors” (Eur J Med Chem, 2010)
